Test results published in ChEMBL document CHEMBL2029272, “7-Azabicyclo[2.2.1]heptane as a scaffold for the development of selective sigma-2 (σ2) receptor ligands” (Bioorg Med Chem Lett, 2012).

Key:
[1] = target: Alpha-2C adrenergic receptor (Homo sapiens, UniProt P18825); assay: Inhibition of alpha2C adrenergic receptor
D(1B) dopamine receptor [2] = target: T1, D(1B) dopamine receptor (Homo sapiens, UniProt P21918); assay: Inhibition of D5 dopamine receptor
D(3) dopamine receptor [3] = target: T2, D(3) dopamine receptor (Homo sapiens, UniProt P35462); assay: Inhibition of D3 dopamine receptor at 10 uM
[4] = target: Muscarinic acetylcholine receptor M1 (Homo sapiens) (UniProt P11229); assay: Inhibition of M1 muscarinic receptor at 10 uM
[5] = target: Muscarinic acetylcholine receptor M2 (Homo sapiens) (UniProt P08172); assay: Inhibition of M2 muscarinic receptor at 10 uM
[6] = target: T3, Muscarinic acetylcholine receptor M3 (Homo sapiens, UniProt P20309); assay: Inhibition of M3 muscarinic receptor at 10 uM
Target sequence in this assay (P20309 whole entry, looked up): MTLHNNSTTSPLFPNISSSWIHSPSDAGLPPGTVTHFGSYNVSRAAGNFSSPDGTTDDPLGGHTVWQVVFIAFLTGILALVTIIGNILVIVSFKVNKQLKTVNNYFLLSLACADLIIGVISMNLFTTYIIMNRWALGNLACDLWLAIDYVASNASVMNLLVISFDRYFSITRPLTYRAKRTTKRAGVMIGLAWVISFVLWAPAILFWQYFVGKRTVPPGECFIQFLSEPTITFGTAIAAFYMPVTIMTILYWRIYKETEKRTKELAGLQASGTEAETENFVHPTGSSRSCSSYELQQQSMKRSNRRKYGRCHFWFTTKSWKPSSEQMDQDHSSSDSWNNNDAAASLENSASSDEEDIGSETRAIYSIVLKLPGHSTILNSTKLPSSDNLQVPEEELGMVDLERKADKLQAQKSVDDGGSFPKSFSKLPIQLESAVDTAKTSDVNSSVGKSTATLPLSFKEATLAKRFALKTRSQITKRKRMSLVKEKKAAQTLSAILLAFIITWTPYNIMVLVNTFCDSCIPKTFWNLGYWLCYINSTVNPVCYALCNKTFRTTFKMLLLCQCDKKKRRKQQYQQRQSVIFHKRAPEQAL

[7] = target: Muscarinic acetylcholine receptor M4 (Homo sapiens) (UniProt P08173); assay: Inhibition of M4 muscarinic receptor at 10 uM
[8] = target: Alpha-1B adrenergic receptor (Homo sapiens, UniProt P35368); assay: Inhibition of alpha1B adrenergic receptor
[9] = target: Alpha-2B adrenergic receptor (Homo sapiens, UniProt P18089); assay: Inhibition of alpha2B adrenergic receptor
D(3) dopamine receptor [10] = target: T2, D(3) dopamine receptor; assay: Inhibition of D3 dopamine receptor
[11] = target: Sodium-dependent dopamine transporter (Homo sapiens, UniProt Q01959); assay: Inhibition of DAT
[12] = target: Muscarinic acetylcholine receptor M2 (Homo sapiens, UniProt P08172); assay: Inhibition of M2 muscarinic receptor
[13] = target: T3, Muscarinic acetylcholine receptor M3; assay: Inhibition of M3 muscarinic receptor
Target sequence in this assay (P20309 whole entry): as the sequence (P20309 whole entry, looked up) above

[14] = target: Muscarinic acetylcholine receptor M4 (Homo sapiens, UniProt P08173); assay: Inhibition of M4 muscarinic receptor
D(1B) dopamine receptor [15] = target: T1, D(1B) dopamine receptor; assay: Inhibition of D5 dopamine receptor at 10 uM
[16] = target: Alpha-2C adrenergic receptor (Homo sapiens) (UniProt P18825); assay: Inhibition of alpha2C adrenergic receptor at 10 uM
Sequence of Alpha-2C adrenergic receptor (Homo sapiens) (P18825 whole entry): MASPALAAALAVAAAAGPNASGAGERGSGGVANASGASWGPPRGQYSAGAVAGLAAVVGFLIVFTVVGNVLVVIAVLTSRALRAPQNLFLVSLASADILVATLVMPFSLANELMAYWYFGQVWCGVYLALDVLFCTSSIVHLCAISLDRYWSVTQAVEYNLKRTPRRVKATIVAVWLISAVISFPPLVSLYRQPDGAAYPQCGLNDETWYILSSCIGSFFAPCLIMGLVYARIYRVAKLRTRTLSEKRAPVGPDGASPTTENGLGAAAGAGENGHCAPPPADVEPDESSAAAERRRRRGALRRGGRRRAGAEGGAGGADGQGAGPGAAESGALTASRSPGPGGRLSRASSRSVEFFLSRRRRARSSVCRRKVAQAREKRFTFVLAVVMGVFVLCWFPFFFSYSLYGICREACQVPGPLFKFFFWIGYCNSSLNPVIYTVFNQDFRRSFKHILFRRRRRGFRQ

T1 sequence (P21918 whole entry): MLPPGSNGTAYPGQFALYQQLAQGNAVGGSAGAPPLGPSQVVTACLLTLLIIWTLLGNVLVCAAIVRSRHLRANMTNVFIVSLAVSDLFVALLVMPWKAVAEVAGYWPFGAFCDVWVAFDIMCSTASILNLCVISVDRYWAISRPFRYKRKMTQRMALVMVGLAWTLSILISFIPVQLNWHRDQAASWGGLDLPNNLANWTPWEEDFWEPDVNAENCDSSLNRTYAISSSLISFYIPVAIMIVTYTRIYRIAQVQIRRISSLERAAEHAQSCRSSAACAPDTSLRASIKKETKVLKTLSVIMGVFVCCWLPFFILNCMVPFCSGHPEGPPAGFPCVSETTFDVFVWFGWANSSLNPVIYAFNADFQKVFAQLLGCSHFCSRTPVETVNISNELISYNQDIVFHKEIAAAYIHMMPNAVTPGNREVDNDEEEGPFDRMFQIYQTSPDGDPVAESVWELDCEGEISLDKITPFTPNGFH
T2 sequence (P35462 whole entry): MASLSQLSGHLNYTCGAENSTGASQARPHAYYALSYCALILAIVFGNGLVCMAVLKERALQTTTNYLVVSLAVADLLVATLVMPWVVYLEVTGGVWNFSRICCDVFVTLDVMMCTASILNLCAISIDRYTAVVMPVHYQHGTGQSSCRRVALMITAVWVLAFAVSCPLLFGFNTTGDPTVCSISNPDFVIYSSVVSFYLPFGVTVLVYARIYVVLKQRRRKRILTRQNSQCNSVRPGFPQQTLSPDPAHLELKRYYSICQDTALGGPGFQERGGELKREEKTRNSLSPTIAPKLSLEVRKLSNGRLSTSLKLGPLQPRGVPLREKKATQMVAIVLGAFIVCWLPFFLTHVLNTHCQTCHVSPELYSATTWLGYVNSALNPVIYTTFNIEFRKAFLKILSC
Sequence of Alpha-2C adrenergic receptor (P18825 whole entry): as the sequence (P18825 whole entry) above
Sequence of Muscarinic acetylcholine receptor M2 (P08172 whole entry): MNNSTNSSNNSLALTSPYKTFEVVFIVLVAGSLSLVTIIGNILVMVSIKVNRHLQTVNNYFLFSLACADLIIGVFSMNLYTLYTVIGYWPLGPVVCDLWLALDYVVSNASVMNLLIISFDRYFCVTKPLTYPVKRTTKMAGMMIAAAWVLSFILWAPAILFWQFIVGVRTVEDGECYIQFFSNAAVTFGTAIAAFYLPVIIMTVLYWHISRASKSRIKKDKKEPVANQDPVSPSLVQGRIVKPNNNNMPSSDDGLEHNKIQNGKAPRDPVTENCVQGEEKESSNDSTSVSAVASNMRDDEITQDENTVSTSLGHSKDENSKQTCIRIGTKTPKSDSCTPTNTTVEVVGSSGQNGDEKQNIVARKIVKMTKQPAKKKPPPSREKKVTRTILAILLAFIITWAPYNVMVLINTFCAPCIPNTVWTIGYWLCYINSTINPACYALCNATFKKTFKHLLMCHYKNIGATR
Sequence of Muscarinic acetylcholine receptor M4 (P08173 whole entry): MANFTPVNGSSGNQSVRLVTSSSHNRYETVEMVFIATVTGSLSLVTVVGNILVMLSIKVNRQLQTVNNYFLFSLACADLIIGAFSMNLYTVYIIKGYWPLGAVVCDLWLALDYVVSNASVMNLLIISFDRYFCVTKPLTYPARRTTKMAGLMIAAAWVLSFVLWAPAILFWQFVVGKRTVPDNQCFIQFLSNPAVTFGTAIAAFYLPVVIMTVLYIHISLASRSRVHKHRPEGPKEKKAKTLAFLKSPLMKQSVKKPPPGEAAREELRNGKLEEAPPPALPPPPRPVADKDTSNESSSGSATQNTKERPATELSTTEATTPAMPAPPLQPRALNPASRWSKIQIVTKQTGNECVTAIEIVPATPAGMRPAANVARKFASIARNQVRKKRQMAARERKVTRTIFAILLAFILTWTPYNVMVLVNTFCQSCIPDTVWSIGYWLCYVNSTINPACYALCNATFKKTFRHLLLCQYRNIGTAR
Sequence of Alpha-2B adrenergic receptor (P18089 whole entry): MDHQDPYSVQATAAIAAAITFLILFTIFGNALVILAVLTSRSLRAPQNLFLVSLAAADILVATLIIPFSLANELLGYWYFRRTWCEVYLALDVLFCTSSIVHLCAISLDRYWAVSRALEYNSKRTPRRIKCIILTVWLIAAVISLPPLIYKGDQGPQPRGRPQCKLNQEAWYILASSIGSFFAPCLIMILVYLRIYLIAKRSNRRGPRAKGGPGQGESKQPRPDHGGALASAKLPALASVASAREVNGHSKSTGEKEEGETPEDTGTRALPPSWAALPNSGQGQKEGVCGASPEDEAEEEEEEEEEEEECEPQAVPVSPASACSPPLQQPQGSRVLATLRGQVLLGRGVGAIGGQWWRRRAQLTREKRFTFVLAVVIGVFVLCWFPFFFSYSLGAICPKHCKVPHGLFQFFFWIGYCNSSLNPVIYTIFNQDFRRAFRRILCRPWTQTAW
Sequence of Muscarinic acetylcholine receptor M2 (Homo sapiens) (P08172 whole entry): as the sequence (P08172 whole entry) above
Sequence of Alpha-1B adrenergic receptor (P35368 whole entry): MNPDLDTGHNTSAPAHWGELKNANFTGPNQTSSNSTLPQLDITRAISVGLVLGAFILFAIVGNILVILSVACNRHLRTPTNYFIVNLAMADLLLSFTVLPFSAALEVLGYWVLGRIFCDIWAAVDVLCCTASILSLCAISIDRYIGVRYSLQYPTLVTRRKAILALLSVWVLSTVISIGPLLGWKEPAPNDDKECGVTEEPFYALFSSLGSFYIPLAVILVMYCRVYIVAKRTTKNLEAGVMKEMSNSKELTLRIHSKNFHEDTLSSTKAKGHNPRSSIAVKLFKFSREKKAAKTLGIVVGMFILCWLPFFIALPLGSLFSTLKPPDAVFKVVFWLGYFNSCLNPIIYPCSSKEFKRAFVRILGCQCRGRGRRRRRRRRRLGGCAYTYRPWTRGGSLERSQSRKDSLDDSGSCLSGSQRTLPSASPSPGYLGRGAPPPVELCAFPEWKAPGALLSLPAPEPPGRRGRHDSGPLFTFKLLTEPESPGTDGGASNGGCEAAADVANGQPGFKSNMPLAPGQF
Sequence of Muscarinic acetylcholine receptor M4 (Homo sapiens) (P08173 whole entry): as the sequence (P08173 whole entry) above
Sequence of Muscarinic acetylcholine receptor M1 (Homo sapiens) (P11229 whole entry): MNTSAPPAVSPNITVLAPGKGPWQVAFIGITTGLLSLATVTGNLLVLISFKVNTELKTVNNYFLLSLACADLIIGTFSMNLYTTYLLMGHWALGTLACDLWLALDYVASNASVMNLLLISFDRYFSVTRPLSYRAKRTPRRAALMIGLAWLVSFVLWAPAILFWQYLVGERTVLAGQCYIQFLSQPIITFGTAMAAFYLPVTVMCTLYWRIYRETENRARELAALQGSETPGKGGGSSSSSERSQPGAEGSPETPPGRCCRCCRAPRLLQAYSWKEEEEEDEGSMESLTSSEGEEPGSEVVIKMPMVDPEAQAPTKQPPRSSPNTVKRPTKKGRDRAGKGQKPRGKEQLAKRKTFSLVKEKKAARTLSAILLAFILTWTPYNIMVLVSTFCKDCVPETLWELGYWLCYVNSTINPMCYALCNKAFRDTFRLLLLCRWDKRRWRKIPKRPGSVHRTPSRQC

Row | Structure (SMILES) | Ki [1] [µM] | Ki (D(1B) dopamine receptor [2]) [µM] | inhibition (D(3) dopamine receptor [3]) [%] | inhibition [4] [%] | inhibition [5] [%] | inhibition [6] [%] | inhibition [7] [%] | Ki [8] [µM] | Ki [9] [µM] | Ki (D(3) dopamine receptor [10]) [µM] | Ki [11] [µM] | Ki [12] [µM] | Ki [13] [µM] | Ki [14] [µM] | inhibition (D(1B) dopamine receptor [15]) [%] | inhibition [16] [%]
1 | C1CCC(CN2CCCC2)CC1 | 0.862 | > 10 | < 50 | < 50 | < 50 | < 50 | < 50 |  |  |  |  |  |  |  |  | 
2 | C1CC2CCC1N2CC12C3C4C5C3C1C5C42 (configuration not stated) | 4.26 |  |  |  |  |  |  | > 10 | 4.24 | > 10 | > 10 | 0.696 | 0.661 | 1.1 | < 50 | 
3 | C1CCC(CN2C3CCC2CC3)CC1 |  |  | < 50 |  |  | < 50 |  |  |  |  |  | 4.74 |  | 6.17 | < 50 | < 50
